Test results reported in patent US12429487B2, “Neurofilament protein for guiding therapeutic intervention in amyotrophic lateral sclerosis” (Biogen MA Inc., priority 2018, dated 2025).
“Also recorded” adds a separate entry of the source. Where two headings read alike, the source gives them in different places. Oligonucleotides are written 5' to 3', each unit as a sugar letter and its base; * is a phosphorothioate linkage, no mark a phosphodiester; rarer units and linkages stand in square brackets, end groups in braces. Plain capitals give the bases only. e = 2'-O-(2-methoxyethyl) (MOE); k = constrained ethyl (cEt); [5mC] = 5-methylcytosine; d = 2'-deoxy (DNA)

Assays:
[1] = test system: ALS patients; settings: EMPOWER, 12 months, vs placebo
Source text: EMPOWER was a Phase 3 global randomized clinical trial (RCT) of the safety and efficacy of dexpramipexole in the treatment of ALS conducted at 81 academic medical centers enrolling 943 adults (see Cudkowicz M E et al., Lancet Neurol. 2013 November; 12(11):1059-67).
The subjects included in the EMPOWER study had to have a diagnosis of possible, probable, or definite ALS, have had ALS symptoms for fewer than 24 months, have an SVC value that was at least 65% of the predicted value, and no significant comorbidities.
In the study, the subjects were allocated in a 1:1 ratio to treatment with dexpramipexole or placebo for 12 months, […]

[2] = test system: plasma neurofilament heavy chain (NFH); settings: EMPOWER, vs placebo, FIG. 2
Source text: Determination of baseline as well as longitudinal plasma neurofilament heavy chain (NFH) concentrations in the clinical trial of dexpramipexole, EMPOWER, and assessment of their relationship to clinical outcomes including survival and the rates of decline of muscle strength (assessed by hand-held dynamometry [HHD]), slow vital capacity (SVC), and ALSFRS-R).
Plasma neurofilament heavy (NFH), measured using a NFH assay on the Ella, an automated microfluidic cartridge based immunoassay platform from Protein Simple.

[3] = test system: people with ALS; settings: cited from earlier work
[4] = test system: serum phospho-neurofilament heavy chain (pNfH); test: SOD1^G93A mice: serum pNfH by ELLA microfluidic ELISA; format: in vivo, mouse; settings: single dose 300 μg at 5 weeks; 8 and 10 weeks of age; vs control ASO, FIG. 4
Protocol: pNfH increases in CSF and serum in ALS rodent models, human patients with ALS, and other neurodegenerative diseases. To look at phosphorylated neurofilament heavy chain levels in the serum, blood was collected at baseline (5 weeks) before i.e.v. injection, and then again at 8 and 10 weeks of age from the SOD1^G93A mutant mice injected once at 5 weeks of age with a single dose of 300 μg ASO1). pNfH serum levels were measured through the ELLA microfluidic ELISA platform (Protein Simple) according to the manufacturer's instructions. Briefly, a maximum of 100 μl blood was collected through facial vein puncture at the indicated time points. Serum samples were prepared by centrifugation of BD Vacutainer SST tubes (BD Diagnostics) and stored at −80° C. until used.

[5] = test system: pNfH and NfL; test: SAD/MAD clinical trial in SOD1 ALS patients: plasma and CSF pNfH and NfL; format: in vivo, human
Protocol: (§1) A double-blind, randomized, placebo-controlled, clinical trial was conducted in SOD1 ALS patients. The trial involved single and multiple ascending dose (SAD/MAD) studies. In the MAD portion, participants received 5 doses of study drug over approximately 3 months. Fifty adult participants with SOD1 mutation were randomized 3:1 (ASO: placebo) per cohort to receive 20 mg, 40 mg, 60 mg, or 100 mg of placebo or a SOD-1 decreasing ASO-ASO1 (SEQ ID NO:8).
Baseline pNfH and NfL levels were highest in fast progressing patients and correlated with disease activity (as measured by ALSFRS-R prerandomization slope). […] In FIGS. 7A-7D, overall placebo (n=12) is the solid line at, near, or above the 1.0 baseline measure throughout the study; overall ASO1 100 mg treatment (n=10) is the solid line declining below the 1.0 baseline measure throughout the study; fast progressing placebo (n=4) is the dotted line at, near, or above the 1.0 baseline measure throughout the study; and fast progressing ASO1 100 mg treatment (n=4) is the dotted line declining below the 1.0 baseline measure throughout the study. pNfH levels were assessed using the ProteinSimple™ Simple Plex Ella immunoassay. NfL levels were assessed using the Quanterix Simoa NfL Advantage assay.

[6] = test system: SOD1 ALS patients; test: SAD/MAD clinical trial in SOD1 ALS patients: ALSFRS-R and SVC; format: in vivo, human; settings: vs placebo
Protocol: as §1

[7] = test system: SOD1^G93A rats; test: SOD1^G93A rats: weight loss onset and survival after intrathecal bolus; format: in vivo, rat; settings: 1000 μg intrathecal bolus, 65-day-old rats
Protocol: SOD1^G93A rats (Taconic Biosciences, model 2148) received a 30-μl intrathecal bolus injection via polyethylene catheter placed between the L3 and L5 vertebrae of the lumber spinal cord. […] All ASOs were diluted in aCSF. All treatment groups were sexual phenotype- and litter-matched to control for drift in copy count or sexual phenotype-induced variances.

[8] = test system: SOD1^G93A mice; test: SOD1^G93A mice: CMAP and neuromuscular junction innervation; format: in vivo, mouse; settings: for compound muscle action potential (CMAP): 100 μg intraventricularly once at 5 weeks of age, next 12 weeks
Source text: To test whether SOD1 reduction by ASO could affect markers of disease, […] in compound muscle action potential (CMAP), neuromuscular junction innervation, and serum phospho-neurofilament heavy chain (pNfH) levels. In SOD1^G93Amice, CMAP declines over time, preceding the loss of motor neurons.

[9] = test system: SOD1^G93A mice; test: SOD1^G93A mice: weight, rotarod, survival after i.c.v. bolus; format: in vivo, mouse; settings: 300 μg bolus at 50 and 94 days of age
Protocol: To investigate whether a SOD1-lowering ASO strategy could delay disease parameters, SOD1^G93A mice (B6.CgTg(SOD1*G93A)Gur/J) were infused Intracerebroventricular […] with bolus doses of 300 μg ASO1 at 50 and 94 days of age. Weight and performance on rotarod were tested weekly.

[10] = test system: CSF SOD1 protein; test: SAD/MAD clinical trial in SOD1 ALS patients: CSF SOD1 concentration; format: in vivo, human; settings: 40 mg, 60 mg and 100 mg cohorts; maximal at 100 mg, Day 85
Protocol: as §1

[11] = test system: SOD1 mRNA; test: SOD1 mRNA lowering in human neuroblastoma cell line SH-SY5Y; format: cell-based; settings: SH-SY5Y cells

Compound: CCCN[C@@H]1CCc2nc(N)sc2C1 [dexpramipexole]
- ALS symptoms / clinical efficacy ([1]; listed as depramipexole): did not reduce ALS symptoms
- ALS symptoms / clinical efficacy ([1]; listed as dexpramiexole): without clinical efficacy
- longitudinal plasma NFH course [2]: no difference

Compound: CC1=NN(c2ccccc2)C(=O)C1 [edaravone]
- disease progression / decline in daily functioning [3]: reduction the decline in daily functioning
- side effects [3]: bruising, gait disturbance, hives, swelling and shortness of breath

Compound: Nc1nc2ccc(OC(F)(F)F)cc2s1 [riluzole]
- disease progression / decline in daily functioning [3]: appears to slow the disease's progression in some people with ALS
- side effects [3]: dizziness, gastrointestinal conditions and liver function changes

Compound: CAoGGoATACATTTCTACoAGoCT (antisense CAGGATACATTTCTACAGCT; modified backbone linkages at marked places, type not given here) [ASO1]
- serum pNfH levels [4]: lower levels of pNfH
- plasma pNfH levels ([5]; 100 mg over time vs placebo, FIG. 7A): reduction
- plasma NfL levels ([5]; 100 mg over time vs placebo, FIG. 7B): reduction
- CSF NfL levels ([5]; 100 mg over time vs placebo, FIG. 7D): reduction
- CSF pNfH levels ([5]; 100 mg vs placebo, overall): Lowering of CSF pNfH; also recorded: reduction
- CSF pNfH levels ([5]; patients with fast-progressing SOD1 mutations, vs placebo): reduction in CSF pNfH levels
- clinical decline ([6]; patients with fast-progressing SOD1 mutations): slowing of clinical decline
- functional decline (ALSFRS-R) ([6]; FIG. 6A): slowing of functional decline
- decline in respiratory function (SVC) ([6]; FIG. 6B): slowing of decline in respiratory function
- maintained weight, days longer than aCSF [7]: 70 days
- compound muscle action potential (CMAP) [8]: maintained CMAP
- innervation of the tibialis anterior muscles ([8]; single dose 300 μg at 5 weeks of age, FIG. 3): maintained innervation
- maintained weight, days longer than inactive ASO [9]: 26 days
- median survival longer compared with inactive ASO [9]: 37 days
- extension of survival ([9]; vs inactive ASO): 22%
- performance on rotarod ([9]; vs inactive ASO): performed better on rotarod
- CSF SOD1 concentrations, change from baseline [10]: Reductions from baseline
- SOD1 mRNA [11]: potently lowered SOD1 mRNA in a dose-dependent manner

Compound: CCGTCGCCCTTCAGCACGCA (antisense e[5mC]*e[5mC]*eG*eT*e[5mC]*dG*d[5mC]*d[5mC]*d[5mC]*dT*dT*d[5mC]*dA*dG*d[5mC]*eA*e[5mC]*eG*e[5mC]*eA) [compound 333611, reference compound]
- onset of weight loss, median [7]: 139 days

Compound: CCoToAoTAGGACTATCCAoGoGoAA (antisense CCTATAGGACTATCCAGGAA; chemically modified at marked places, type not given here) [Inactive ASO (in vivo), reference compound]
- compound muscle action potential (CMAP) [8]: reduced by more than half
- denervation of muscle endplates ([8]; tibialis anterior, FIG. 3): more than 75%

Compound: TToAoATGTTTATCAoGoGAT (antisense eT*eTeAeA*dT*dG*dT*dT*dT*dA*dT*d[5mC]*kAkGeG*eA*eT) [ASO2]
- maintained weight, days longer than aCSF [7]: 67 days
- SOD1 mRNA [11]: potently lowered SOD1 mRNA in a dose-dependent manner
